Results taken from patent publication US20040077618A1, “Cycloalkylamides and their therapeutic applications” (priority 2002, published 2004).

Key:
[1] = system: CD-1 mice; test: Maximal electroshock procedure (protection from tonic seizures); format: in vivo; details: Mus musculus, corneal electrodes 50 mA 0.4 second, oral pretreatment 30 minutes prior, PROBIT analysis, male CD-1 mice, read-out: ED50 (dose at which 50% of the mice were protected from tonic seizures)
Description: (§1) Adult, male, CD-1 mice (22-25 grams) were obtained from Charles River Laboratories (Portage, Mich.) and housed at Abbott Laboratories (Abbott Park) under standard lighting conditions of 12 hours on/12 hours off, with lights on at 6 a.m. Food and water were provided ad libitum and mice weighed 25-35 grams at the time of testing.
(§2) Compounds were prepared for oral administration by suspending them in a vehicle of 100 uL Tween® 80 per mL hydroxypropyl methylcellulose (2 mg/mL, Abbott Laboratories). Compound solutions were administered at a volume of 10 mL/kg, p.o.
The method used was similar to that of E. A. Swinyard, General principles: Experimental selection, quantification and evaluation of anti-convulsants, Anti-epileptic Drugs, Third Edition, R. Levey, et al., Editors. 1989, Raven Press Ltd: New York. Mice were pretreated orally with compounds of the present invention 30 minutes prior to electrical stimulation. Electrical stimulation consisted of pulsed electrical current (50 mA, 0.4 second duration, pulse width 0.5 msec, 60 pulses/sec) applied via corneal electrodes to induce seizure. The stimulation was delivered with an ECT Unit (Ugo Basile #7801). […] The percent protection from tonic seizures was calculated by dividing the number of protected mice by the total number in the group. […]

[2] = system: CD-1 mice; test: Subcutaneous pentylenetetrazole (PTZ) seizure procedure; format: in vivo; details: Mus musculus; PTZ 85 mg/kg subcutaneous; oral pretreatment 30 minutes prior; observed 15 minutes; linear regression; male CD-1 mice; read-out: ED50 (dose at which 50% of the mice were protected from tonic seizures)
Description: as §1, §2
The method used was similar to that of E. A. Swinyard, General principles: Experimental selection, quantification and evaluation of anti-convulsants, Anti-epileptic Drugs, Third Edition, R. Levey, et al., Editors. 1989, Raven Press Ltd: New York. During the experiment the mice were housed individually in clear polycarbonate cages for observation. […] Seizures were induced by the subcutaneous injection of pentylenetetrazole (PTZ, 85 mg/kg) just below the nape of the neck. […] A total of 20 mice were used in each group. The ED50 for the compounds were calculated using linear regression and represent the dose at which 50% of the mice were protected from tonic seizures.

CCCC(CCC)C(=O)O [Valproate]
ED50 [1]: 1200 µmol/kg
ED50 [2]: 1800 µmol/kg
